Laboratory results: PMC5304334, “Antifouling potential of Nature-inspired sulfated compounds” (Scientific Reports, 2017)
pEC50: −log10 of the molar value. “Also recorded” adds a separate entry of the source. Like-named read-outs stand apart in the source and are kept apart here.

What was measured:
[1] = test system: Halomonas aquamarina CECT 5000; assay: Antibacterial growth inhibition, Halomonas aquamarina; assay type: cell-based; settings: H. aquamarina
Protocol: (§1) Antibacterial activities were evaluated against four strains of marine biofilm-forming bacteria Cobetia marina CECT 4278, Vibrio harveyi CECT 525, Halomonas aquamarina CECT 5000, and Pseudoalteromonas atlantica CECT 570, all from Spanish Type Culture Collection (CECT). The bacteria were inoculated and incubated for 24 h at 26 °C in marine broth (Difco) at an initial density of 0.1 (OD600) in 96 well flat-bottom microtiter plates. Sulfated compounds stock solutions were prepared in ultra-pure water. […] Bacterial growth inhibition in the presence of the test compounds was measured in quadriplicate by reading of optical density at 600 nm using a microplate reader (Biotek Synergy HT, Vermont, USA). Marine broth with ultra-pure water and penicilin-streptomycin-neomycin stabilized solution were used as negative (B) and positive (C) controls, respectively.
(§2) For the determination of maximal inhibitory concentrations (IC) a serial dilution of the stock solution was used to obtain final concentrations from 100 μM to 0.75 μM, the same range applied in antifouling bioassays plus one lower concentration, and the same procedure was applied.
(§3) Data from the anti-settlement and antibacterial screenings were analyzed using a one-way analysis of variance (ANOVA) followed by a Dunnett test against the control (p < 0.05). Semi-maximum response concentration that inhibited 50% larval settlement (EC50), semi-maximum response concentration that inhibited 20% bacterial growth (EC20) and the median lethal dose (LC50) for each bioactive compound were assessed using Probit regression analysis. Pearson Goodness-of-fit (Chi-Square) significance was considered at p < 0.05 for all analyses, and 95% lower and upper confidence limits [95% LCL; UCL] were presented. Therapeutic ratio (LC50/EC50) was used to evaluate the effectiveness vs toxicity of compounds[31][53][54]. The software IBM SPSS Statistics 21 was used for statistical analysis.

[2] = test system: Vibrio harveyi CECT 525; assay: Antibacterial growth inhibition, Vibrio harveyi; assay type: cell-based; settings: V. harveyi
Protocol: as §1, §2
Data from the anti-settlement and antibacterial screenings were analyzed using a one-way analysis of variance (ANOVA) followed by a Dunnett test against the control (p < 0.05). […]

[3] = test system: Mytilus galloprovincialis plantigrades; assay: Anti-settlement bioassay with mussel plantigrades (effectiveness and mortality); assay type: in vivo; settings: for Anti-settlement activity in screening (result in words): 250 and 50 μM, p < 0.05 Dunnett; for Anti-settlement activity in screening (result in words) / Concentration range with significant anti-settlement activity: versus negative control; for pEC50 / EC50: Mytilus galloprovincialis, read-out: EC50, minimum concentration that inhibited 50% of larval settlement; for pEC50: 1.56–500 μM; for Concentration range with significant anti-settlement activity: concentration-response 1.56–500 μM
Protocol: (§4) M. galloprovincialis juvenile (0.5 cm shell length approximately) aggregates were collected from mussel beds from the intertidal rocky shore, during low neap tides at Memória beach, Matosinhos, Portugal (41°13′59″N; 8°43′28″W), and immediately transported to the laboratory. M. galloprovincialis plantigrade post-larvae (0.5–2 mm) were screened among the small mussel aggregates in a binocular magnifier (Olympus SZX2-ILLT), gently washed with filtered seawater to remove organic debris and sand particles and isolated in a petri dish with filtered seawater immediately before the bioassays.
(§5) For the screening bioassay, competent M. galloprovincialis plantigrades (showing exploring behavior, ie, moving their foot searching for the appropriate substrate to settle) were selected and exposed to the series of sulfated compounds 1–13 at two concentrations (250 and 50 μM) in 24-well microplates for 15 h, at 18 ± 1 °C, in the darkness. Bioassays time frame was selected based on preliminary bioassays to ensure that the response measured is reflecting the compounds effect. Test solutions were prepared in filtered seawater (previously treated by UV light, and carbon filters and mechanically filtered with […] filter before use) and obtained by dilution of the compounds stock solutions (50 mM) in ultra-pure water. Four well replicates were used per condition with five plantigrades per well and 2.5 mL of test solution. A negative control, with ultra-pure water was included in all bioassays, as well as a positive control with 5 μM CuSO4 (a potent AF agent). At the end of the exposure period, the anti-settlement activity was determined by the presence/absence of byssal threads produced by each individual efficiently attached for all the conditions tested.
as §3

[4] = Seawater stability under AF assay conditions (HPLC-DAD); assay type: physicochemical; settings: 250 μM in filtered seawater, 15 h, 18 °C
Protocol: High performance liquid chromatography with Diode-Array Detection (HPLC-DAD) analyses were carried out on a System SMI Pump Series II (Gloucester, UK) equipped with a Rheodyne 7125 injector fitted with a 20 μL loop, a TSP-UV6000LP detector, and a Chromquest for Windows NT integrator and using a C-18 Nucleosil column (5 μm, 250 × 4.6 mm I.D.), from Macherey-Nagel (Düren, Germany); acetonitrile was of HPLC grade from Merck. HPLC ultrapure water was generated by a Milli-Q system (Millipore, Bedford, MA, USA). The mobile phase used was water with tetrabutylammonium bromide (TBAB, 25 mM) and acetonitrile (38:62) at a constant flow rate of 1.0 mL.min^−1. The mobile phase was filtered ([…]) and degassed for 15 min in an ultrasonic bath before use.
The seawater stability of the three most promising compounds 2, 6, and 12 in the time period (15 h) and temperature (18 °C) of the AF assay was evaluated by HPLC-DAD. Compounds were analyzed at 250 μM (final concentration) in filtered seawater ([…]). Incubations were performed in glass HPLC vials and three independent samples plus respective blank (filtered seawater) and controls (time zero - freshly prepared solutions of compounds) were analyzed.

[5] = target: T1, Electrophorus electric acetylcholinesterase Type V-S (Electrophorus electricus, UniProt O42275); assay: In vitro acetylcholinesterase activity (Ellman); assay type: biochemical; settings: 50 μM compound
T1 construct: purchased SIGMA C2888
Protocol: The potential of compounds 2, 6 and 12 to inhibit acetylcholinesterases activity was evaluated using Electrophorus electric acetylcholinesterase Type V-S (SIGMA C2888, E.C. 3.1.1.7), according to Ellman et al.[47] with some modifications. Briefly, reaction solution containing phosphate buffer 1 M pH 7.2, dithiobisnitrobenzoate (DTNB) 10 mM (acid dithiobisnitrobenzoate and sodium hydrogen carbonate in phosphate buffer) and […] 0.075 M was added to pure acetylcholinesterase enzyme (0.25 U/mL) and each test sulfated compound (final concentration of 50 μM) in quadruplicate. The optical density was measured at 412 nm in a microplate reader during 5 min at 25 °C. A negative control (B) with ultra-pure water and a positive control (C+) with 20 mM eserine also included.

[6] = Water solubility (statement in discussion); assay type: physicochemical
[7] = Luminescent Vibrio fischeri ecotoxicity assay (ISO11348); assay type: cell-based; settings: Vibrio fischeri; read-out: LC50 Vibrio fischeri
Protocol: (§6) After 5, 15 and 30 min of exposure, the light emitted as a by-product of Vibrio fischeri cellular respiration was measured at 490 nm. Any inhibition of cellular activity results in a decreased rate of respiration and a corresponding decrease in the rate of luminescence. The decrease of bacterial luminescence measured after 5, 15 or 30 min of exposition was used as test endpoint. Luminescence was measured using a LUMIStox photometer from DR LANGE, after a contact time of 15 min and 30 min at 15 ± 1 °C, taking into account a correction factor, fk, which is a measure of intensity change of control samples during the exposure time.
(§7) The pH of all samples was within the interval 6.0–8.5.

[8] = test system: Vibrio fischeri (NRRL-B-11177); assay: as above; assay type: cell-based; settings: for Inhibition of light radiation emitted by V. fischeri: 15 min or 30 min contact, up to 1000 mg/L; for EC50: Aliivibrio fischeri, V. fischeri luminescence
Protocol: as §6, §7

[9] = test system: Agaricus bisporus tyrosinase; assay: In vitro tyrosinase inhibition assay; assay type: biochemical; settings: 50 μM compound
Protocol: Tyrosinase inhibition assays were conducted using Agaricus bisporus tyrosinase (EC 1.14.18.1) according to Adhikari et al.[50] with slight modifications. The enzymatic reaction follows the catalytic conversion of L-Dopa to dopaquinone and the formation of dopachrome by measuring the absorvance at 475 nm. Briefly, tyrosinase (25 U/mL) is added to 50 mM fosfate buffer pH 6.5 and the sulfated compound at 50 μM. The enzymatic activity was triggered by the addition of L-dopa (25 mM). Kojic acid was included as positive control and ultra-pure water as negative control.

[10] = test system: Artemia salina nauplii; assay: Artemia salina nauplii lethality (ecotoxicity) test; assay type: in vivo; settings: for Mortality of Artemia salina: 250 μM; for Mortality of A. salina nauplii / Toxicity to A. salina: 25, 50, and 250 μM, 48 h; for Toxicity to A. salina: versus negative control
Protocol: Selected sulfated compounds with AF potential 2, 6, and 12 were tested for general toxicity to nontarget species using the brine shrimp (Artemia salina) nauplii lethality test[51]. Briefly, A. salina eggs were allowed to hatch in nutrient–enriched seawater as nauplii for approximately 48 h at 25 °C. Toxicity tests were performed in the darkness in 96-wells microplates with eight replicates per condition and 15–20 nauplii per well. Serial diluted test solutions of the most promising sulfated AF compounds (25, 50, and 250 μM) were prepared in filtered seawater. K2Cr2O7 (13.6 μM) was included as positive control and ultra-pure water as negative control. Percentage of mortality was determined at 48 h of exposure.

[11] = Anti-settlement bioassay with mussel plantigrades (effectiveness and mortality); assay type: in vivo, Mytilus galloprovincialis; settings: Mytilus galloprovincialis, in vivo, other: immersion in test solution in filtered seawater; mortality of plantigrades, 15 h, up to 500 μM; read-out: LC50, the median lethal dose
Protocol: as §4, §5, §3

[12] = NRRLB11177, 0.25 h, 15 min contact, read-out: EC50 15min
[13] = NRRLB11177, 0.5 h, 30 min contact, read-out: EC50 30min
[14] = 15 h, plantigrades, 15 h, 18 °C

T1 sequence (O42275 24-633): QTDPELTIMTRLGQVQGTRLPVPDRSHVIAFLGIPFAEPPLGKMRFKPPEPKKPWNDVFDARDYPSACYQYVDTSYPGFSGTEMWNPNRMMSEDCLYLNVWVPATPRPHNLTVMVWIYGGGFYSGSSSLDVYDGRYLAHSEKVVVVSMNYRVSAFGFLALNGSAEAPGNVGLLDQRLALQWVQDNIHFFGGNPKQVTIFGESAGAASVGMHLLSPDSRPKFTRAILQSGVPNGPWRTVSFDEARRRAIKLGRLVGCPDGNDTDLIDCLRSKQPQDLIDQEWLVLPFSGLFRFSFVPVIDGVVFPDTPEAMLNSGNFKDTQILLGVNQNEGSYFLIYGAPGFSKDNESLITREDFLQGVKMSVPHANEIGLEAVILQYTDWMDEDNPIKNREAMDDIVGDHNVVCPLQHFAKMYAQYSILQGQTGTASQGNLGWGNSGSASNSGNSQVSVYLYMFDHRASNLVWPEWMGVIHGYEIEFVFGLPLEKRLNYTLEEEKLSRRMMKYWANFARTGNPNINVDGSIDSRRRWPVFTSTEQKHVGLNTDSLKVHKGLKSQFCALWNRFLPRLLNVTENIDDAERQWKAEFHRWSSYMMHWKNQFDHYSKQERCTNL

Row | SMILES | Anti-settlement activity in screening (result in words) ([3]; 15 h) | Concentration detected relative to the initial one (seawater stability) [4] | Acetylcholinesterase activity inhibition [5] | Water solubility [6] | CC50 [7] [µg/mL] | Inhibition of light radiation emitted by V. fischeri [8] | EC50 [8, 12] [µg/mL] | EC50 [8, 13] [µg/mL] | Tyrosinase activity inhibition [9] | Mortality of Artemia salina [10] [%] | Mortality of A. salina nauplii [10] | Toxicity to A. salina [10] | LC50 at 15 h [11] [µM] | pEC50 [3, 14] | EC50 [3, 14] [µg/mL] | Concentration range with significant anti-settlement activity [3] [µM] | further results
1 | O=c1c(O[C@@H]2O[C@H](COS(=O)(=O)O)[C@@H](OS(=O)(=O)O)[C@H](OS(=O)(=O)O)[C@H]2OS(=O)(=O)O)c(-c2ccccc2)oc2cc(O[C@@H]3O[C@H](COS(=O)(=O)O)[C@@H](OS(=O)(=O)O)[C@H](OS(=O)(=O)O)[C@H]3OS(=O)(=O)O)ccc12 [Compound 4, 3,7-di(β-D-glucopyranosyl)flavone persulfate] | did not show notable activity |  |  |  |  |  |  |  |  |  |  |  |  |  |  |  | Bacterial growth inhibition in screening ([1]; 12.5 μM, 24 h, 26 °C): significant inhibitory activity; Bacterial growth inhibition at all the concentrations tested ([1]; 0.75–100 μM): less than 30%; inhibition at 12.5 µM ([1]; Vreelandella aquamarina, CECT5000, 12.5 μM): 15.3%; inhibition at 100 µM ([1]; Vreelandella aquamarina, CECT5000, 100 μM): 26.5%; EC20, minimum concentration that inhibited 20% of bacterial growth [2]: >100 µM
2 | O=c1c2ccc(O[C@@H]3O[C@H](COS(=O)(=O)O)[C@@H](OS(=O)(=O)O)[C@H](OS(=O)(=O)O)[C@H]3OS(=O)(=O)O)cc2oc2cc(O[C@@H]3O[C@H](COS(=O)(=O)O)[C@@H](OS(=O)(=O)O)[C@H](OS(=O)(=O)O)[C@H]3OS(=O)(=O)O)ccc12 [Compound 6] | significant anti-settlement responses at 50 μM; also recorded: highly active | at least 95% | not inhibited | highly water soluble | > 1000 | no inhibition of light radiation emitted was found; also recorded: lack of light radiation inhibition | > 1000 | > 1000 | not inhibited | < 10 | less than 10% | no toxicity | > 500 | 4.63 | 31.7 | 25 to 500 | 
3 | O=C(O)c1cc(OS(=O)(=O)O)c(OS(=O)(=O)O)c(OS(=O)(=O)O)c1 [Compound 12, gallic acid persulfate] | significant anti-settlement responses at 50 μM | at least 95% | not inhibited | highly water soluble | > 1000 | no inhibition of light radiation emitted was found; also recorded: lack of light radiation inhibition | > 1000 | > 1000 | not inhibited | < 10 | less than 10% | no toxicity | > 500 | 4.75 | 8.95 | 12.5 to 500 | EC50, minimum concentration that inhibited 50% of larval settlement ([3]; plantigrades, 15 h, 18 °C): 8.4 µg/mL
